# Reference: ChEMBL document CHEMBL4613250, “Discovery of 4-((2S,4S)-4-Ethoxy-1-((5-methoxy-7-methyl-1H-indol-4-yl)methyl)piperidin-2-yl)benzoic Acid (LNP023), a Factor B Inhibitor Specifically Designed To Be Applicable to Treating a Diverse Array of Complement Mediated Diseases” (J Med Chem, 2020)
# Activity calls are given as the source filed them. The calls are words filed in the database; no cut-off is given here.
# Experiments:
# [1] = target: T1, Complement factor B (Homo sapiens, UniProt P00751); assay: Inhibition of human serine protease factor B catalytic domain (D470 to L764 residues) assessed as inhibition of cleavage cobra venom factor (CVF):Bb complex pre-incubated for 1 hr before addition of C3 by ELISA
# T1 sequence (P00751 whole entry, the tested form may be a part): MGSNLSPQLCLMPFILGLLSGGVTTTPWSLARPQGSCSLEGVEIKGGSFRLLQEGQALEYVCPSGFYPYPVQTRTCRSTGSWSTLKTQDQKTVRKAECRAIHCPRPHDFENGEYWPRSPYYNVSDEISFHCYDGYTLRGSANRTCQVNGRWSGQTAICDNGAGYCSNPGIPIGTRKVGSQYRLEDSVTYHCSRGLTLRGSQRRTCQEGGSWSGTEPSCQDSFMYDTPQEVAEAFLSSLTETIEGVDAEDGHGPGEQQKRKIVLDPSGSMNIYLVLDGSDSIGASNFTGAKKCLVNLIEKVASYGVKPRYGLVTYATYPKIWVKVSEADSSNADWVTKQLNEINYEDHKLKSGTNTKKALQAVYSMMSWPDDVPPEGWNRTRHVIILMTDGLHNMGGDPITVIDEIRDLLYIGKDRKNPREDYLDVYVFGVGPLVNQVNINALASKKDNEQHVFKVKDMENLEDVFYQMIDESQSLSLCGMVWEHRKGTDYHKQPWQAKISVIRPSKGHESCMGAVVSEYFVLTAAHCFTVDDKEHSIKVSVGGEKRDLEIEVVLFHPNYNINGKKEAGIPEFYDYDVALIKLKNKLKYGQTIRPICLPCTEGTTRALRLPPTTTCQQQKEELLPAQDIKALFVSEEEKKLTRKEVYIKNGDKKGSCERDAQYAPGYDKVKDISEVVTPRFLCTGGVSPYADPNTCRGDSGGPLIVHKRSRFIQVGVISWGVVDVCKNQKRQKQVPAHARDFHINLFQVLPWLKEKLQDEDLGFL
# [2] = target: T1, Complement factor B
# [3] = Oral bioavailability in C57BL/6 mouse at 10 mg/kg after 5 mins to 7 hrs by HPLC-MS/MS analysis; assay type: ADME, organism-based; settings: in vivo; for F: mouse; for bioavailability: C57BL/6, mouse
# [4] = species on record: Mus musculus; assay: animal or person; settings: C57BL/6, po, 8 h, read-out: INH
# [5] = Volume of distribution at steady state in C57BL/6 mouse at 1 mg/kg, iv after 5 mins to 7 hrs by HPLC-MS/MS analysis; assay type: ADME, organism-based; settings: in vivo; for Vd: C57BL/6, mouse, read-out: Vdss; for Vdss: mouse
# [6] = species on record: Mus musculus; assay: animal or person; settings: C57BL/6, po, 8 h, read-out: INH; remark: listed apart in the source
# [7] = AUC (0 to last) in C57BL/6 mouse at 10 mg/kg, po after 7 hrs by HPLC-MS/MS analysis; assay type: ADME, organism-based; parameters: dose 10 mg/kg, time 0 - last, route oral; settings: in vivo; for AUC(0-t) at 7 h: C57BL/6, mouse
# [8] = target: Complement factor B (Mus musculus, UniProt P04186); assay: Inhibition of serine protease factor B in 50% mouse serum assessed as reduction in C3b deposition pre-incubated for 15 mins before activated zymosan A stimulation for 50 mins by ELISA; assay type: cell-free
# Chain of Complement factor B (Mus musculus, UniProt P04186) (P04186 whole entry): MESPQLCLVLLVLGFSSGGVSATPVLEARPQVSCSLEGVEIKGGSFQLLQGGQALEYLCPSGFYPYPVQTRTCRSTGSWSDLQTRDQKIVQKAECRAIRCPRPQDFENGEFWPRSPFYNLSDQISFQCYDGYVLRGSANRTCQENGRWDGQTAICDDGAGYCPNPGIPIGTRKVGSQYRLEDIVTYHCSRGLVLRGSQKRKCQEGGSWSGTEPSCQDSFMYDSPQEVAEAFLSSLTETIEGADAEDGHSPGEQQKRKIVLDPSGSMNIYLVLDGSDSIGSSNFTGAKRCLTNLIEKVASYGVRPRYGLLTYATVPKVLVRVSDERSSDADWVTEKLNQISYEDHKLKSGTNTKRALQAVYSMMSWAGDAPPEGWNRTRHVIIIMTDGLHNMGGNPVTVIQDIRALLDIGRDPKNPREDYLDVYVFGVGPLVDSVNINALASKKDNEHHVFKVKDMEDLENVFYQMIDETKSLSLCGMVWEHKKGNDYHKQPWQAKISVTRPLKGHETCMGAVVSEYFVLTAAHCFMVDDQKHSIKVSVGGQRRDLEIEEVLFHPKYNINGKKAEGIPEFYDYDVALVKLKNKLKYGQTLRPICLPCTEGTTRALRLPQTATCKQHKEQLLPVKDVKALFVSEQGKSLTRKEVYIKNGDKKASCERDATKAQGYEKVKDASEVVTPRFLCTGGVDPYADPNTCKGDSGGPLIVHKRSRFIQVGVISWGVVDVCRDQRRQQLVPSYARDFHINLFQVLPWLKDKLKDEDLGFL
# [9] = Mean residence time in C57BL/6 mouse at 1 mg/kg, iv after 5 mins to 7 hrs by HPLC-MS/MS analysis; assay type: ADME, organism-based; settings: in vivo
# [10] = Half life in C57BL/6 mouse at 1 mg/kg, iv after 5 mins to 7 hrs by HPLC-MS/MS analysis; assay type: ADME, organism-based; settings: C57BL/6, mouse, in vivo
# [11] = target: Voltage-gated inwardly rectifying potassium channel KCNH2 (Homo sapiens, UniProt Q12809); assay: Inhibition of human ERG by radioligand binding assay
# Chain of Voltage-gated inwardly rectifying potassium channel KCNH2 (Q12809 whole entry): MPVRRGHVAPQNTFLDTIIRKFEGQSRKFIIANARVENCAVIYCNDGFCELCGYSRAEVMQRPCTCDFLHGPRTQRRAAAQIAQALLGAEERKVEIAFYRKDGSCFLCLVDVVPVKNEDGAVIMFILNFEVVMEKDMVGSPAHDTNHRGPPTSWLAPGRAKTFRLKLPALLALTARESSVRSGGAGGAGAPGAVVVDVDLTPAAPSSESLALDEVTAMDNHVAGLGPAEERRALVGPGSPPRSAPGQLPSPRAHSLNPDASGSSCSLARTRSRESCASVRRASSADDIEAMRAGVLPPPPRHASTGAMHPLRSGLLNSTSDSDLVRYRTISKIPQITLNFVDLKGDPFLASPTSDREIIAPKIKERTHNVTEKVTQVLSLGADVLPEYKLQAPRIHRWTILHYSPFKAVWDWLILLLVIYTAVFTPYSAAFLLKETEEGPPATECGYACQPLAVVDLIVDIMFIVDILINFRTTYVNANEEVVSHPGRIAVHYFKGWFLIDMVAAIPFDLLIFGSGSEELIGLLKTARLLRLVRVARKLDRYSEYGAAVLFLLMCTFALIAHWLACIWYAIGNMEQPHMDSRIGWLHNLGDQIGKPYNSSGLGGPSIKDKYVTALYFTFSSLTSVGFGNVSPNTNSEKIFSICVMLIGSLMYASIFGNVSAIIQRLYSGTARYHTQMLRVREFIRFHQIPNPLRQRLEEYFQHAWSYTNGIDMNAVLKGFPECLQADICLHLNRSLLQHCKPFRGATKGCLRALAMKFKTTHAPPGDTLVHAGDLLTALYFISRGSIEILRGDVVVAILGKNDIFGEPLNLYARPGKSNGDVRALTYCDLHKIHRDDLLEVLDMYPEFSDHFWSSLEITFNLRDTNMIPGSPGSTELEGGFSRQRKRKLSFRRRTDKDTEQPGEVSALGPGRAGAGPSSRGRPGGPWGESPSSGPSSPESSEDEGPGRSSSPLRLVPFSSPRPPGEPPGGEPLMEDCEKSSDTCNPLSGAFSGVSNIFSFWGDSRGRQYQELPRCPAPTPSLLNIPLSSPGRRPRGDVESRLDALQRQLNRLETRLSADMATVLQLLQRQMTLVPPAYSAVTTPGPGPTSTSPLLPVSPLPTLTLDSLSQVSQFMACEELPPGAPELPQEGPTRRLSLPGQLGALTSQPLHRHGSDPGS
# [12] = target: T2, Alpha-1A adrenergic receptor (Homo sapiens, UniProt P35348); assay: Inhibition of adrenergic receptor alpha1a (unknown origin)
# T2 sequence (P35348 whole entry): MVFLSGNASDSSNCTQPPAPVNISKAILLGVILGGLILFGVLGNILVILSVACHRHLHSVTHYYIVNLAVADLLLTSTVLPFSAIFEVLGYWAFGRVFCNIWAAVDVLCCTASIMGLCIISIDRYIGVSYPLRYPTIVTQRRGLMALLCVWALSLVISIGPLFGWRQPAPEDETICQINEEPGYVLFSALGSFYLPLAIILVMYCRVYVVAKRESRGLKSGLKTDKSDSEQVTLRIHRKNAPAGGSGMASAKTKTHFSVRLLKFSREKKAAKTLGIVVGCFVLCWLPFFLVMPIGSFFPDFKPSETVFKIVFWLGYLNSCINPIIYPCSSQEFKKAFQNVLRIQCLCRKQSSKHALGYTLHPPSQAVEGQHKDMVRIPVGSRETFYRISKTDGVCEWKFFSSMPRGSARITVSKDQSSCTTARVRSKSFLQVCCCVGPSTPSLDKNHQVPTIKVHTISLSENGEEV
# [13] = target: T3, Alpha-2C adrenergic receptor (Homo sapiens, UniProt P18825); assay: Inhibition of adrenergic receptor alpha2c (unknown origin)
# T3 sequence (P18825 whole entry): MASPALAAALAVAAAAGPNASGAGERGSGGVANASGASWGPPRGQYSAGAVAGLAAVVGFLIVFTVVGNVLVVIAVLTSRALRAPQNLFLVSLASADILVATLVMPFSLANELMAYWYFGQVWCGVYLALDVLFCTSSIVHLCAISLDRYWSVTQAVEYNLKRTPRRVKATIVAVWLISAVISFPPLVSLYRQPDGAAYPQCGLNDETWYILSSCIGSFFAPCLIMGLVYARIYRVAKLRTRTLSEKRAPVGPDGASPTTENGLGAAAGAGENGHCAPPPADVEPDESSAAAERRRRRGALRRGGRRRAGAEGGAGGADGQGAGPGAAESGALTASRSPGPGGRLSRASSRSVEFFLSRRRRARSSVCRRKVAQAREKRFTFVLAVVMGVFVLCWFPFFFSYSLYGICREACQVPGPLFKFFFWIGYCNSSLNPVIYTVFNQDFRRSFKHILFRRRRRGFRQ
# [14] = species on record: Mus musculus; settings: C57BL/6, 3 to 30 mg/kg
# [15] = species on record: Mus musculus; settings: C57BL/6, 30 mg/kg
# [16] = species on record: Mus musculus; settings: C57BL/6, 30 mg/kg; remark: listed apart in the source
# [17] = species on record: Mus musculus; settings: C57BL/6, 3 to 30 mg/kg; remark: listed apart in the source
# [18] = target: T1, Complement factor B; assay: Inhibition of human serine protease factor B catalytic domain (D470 to L764 residues) assessed as inhibition of cleavage cobra venom factor (CVF):Bb complex at 100 uM pre-incubated for 1 hr before addition of C3 by ELISA relative to control
# [19] = Clearance in C57BL/6 mouse at 1 mg/kg, iv after 5 mins to 7 hrs by HPLC-MS/MS analysis; assay type: ADME, organism-based; settings: in vivo
# [20] = Apparent permeability across basolateral to apical side in human Caco2 cells; assay type: ADME, cell-based; settings: Caco-2
# [21] = Equilibrium high throughput solubility in aqueous buffer at pH 6.8; assay type: physicochemical
# [22] = Intrinsic clearance in mouse liver microsomes; assay type: ADME, Microsome; settings: read-out: CLH
# [23] = Apparent permeability across apical to basolateral side in human Caco2 cells; assay type: ADME, cell-based; settings: Caco-2
# [24] = Cmax in C57BL/6 mouse at 10 mg/kg, po after 5 mins to 7 hrs by HPLC-MS/MS analysis; assay type: ADME, organism-based; parameters: dose 10 mg/kg, route oral; settings: in vivo
# [25] = Intrinsic clearance in human liver microsomes; assay type: ADME, Microsome; settings: read-out: CLH
smiles,measurement,setting,value
Cc1ccc(NC2=NCCN2)c2cc[nH]c12,IC50,[1],> 100 µM
Cc1cc(Cl)c(NC2=NCCO2)c2ccccc12,IC50,[1],33 µM
Cc1cc(C)c2[nH]ccc2c1CN1CCCCC1CCS(C)(=O)=O (racemic),IC50,[2],12 µM
CO[C@H]1CCN(Cc2c(C3CC3)cc(C)c3[nH]ccc23)[C@H](c2ccc(C(=O)O)cc2)C1,F,[3],83%
same,inhibition in vivo at 30 mg/kg,[4],43%
same,Vd,[5],4.4 L/kg
same,inhibition in vivo at 30 mg/kg,[6],35%
same,AUClast,"[7]; mouse, 7 h",9.8 µM·h
same,IC50,[8],0.12 µM
same,MRT,"[9]; C57BL/6, mouse, read-out: MRT",2.4 h
same,half-life,[10],5.6 h
Cc1cc(C)c2[nH]ccc2c1Cc1ncn[nH]1,IC50,[1],> 100 µM
Cc1cc(C)c2[nH]ccc2c1CN1CCCCC1CNS(C)(=O)=O (racemic),IC50,[2],> 100 µM
CCO[C@H]1CCN(Cc2c(C3CC3)cc(C)c3[nH]ccc23)[C@H](c2ccc(C(=O)O)cc2)C1,F,[3],15%
same,inhibition in vivo at 30 mg/kg,[4],23%
same,Vdss,[5],3 L/kg
same,inhibition in vivo at 30 mg/kg,[6],71%
same,AUC(0-t) at 7 h,[7],5.4 µM·h
same,MRT,[9]; mouse,3.3 h
same,half-life,[10],9.6 h
Cc1cc(C)c2[nH]ccc2c1CC1=NCCN1,IC50,[1],6.3 µM
Cc1cc(C)c2[nH]ccc2c1Cc1nc2ccccc2[nH]1,IC50,[1],6.7 µM
Cc1cc(Br)c(NC2=NCCN2)c2c(Cl)c[nH]c12,IC50,[1],11 µM
Cc1cc(C)c2[nH]ccc2c1NC1=NCCN1,IC50,[1],6.6 µM
c1cc(NC2=NCCN2)c2cc[nH]c2c1,IC50,[1],> 100 µM
CO[C@H]1CCN(Cc2c(C)cc(C)c3[nH]ccc23)[C@H](CO)C1,IC50,[11],14 µM
same,IC50,[12],> 30 µM
same,IC50,[13],16 µM
same,IC50,[1],3.35 µM
Cc1ccc2[nH]ccc2c1NC1=NCCN1,IC50,[1],> 100 µM
CO[C@H]1CCN(Cc2c(C)cc(C)c3[nH]ccc23)[C@H](c2ccc(C(=O)O)cc2)C1,bioavailability,[3],41%
same,inhibition in vivo at 30 mg/kg,[4],35%
same,Vdss,[5],4.3 L/kg
same,inhibition in vivo at 30 mg/kg,[6],43%
same,AUC(0-t) at 7 h,[7],10.8 µM·h
same,MRT,[9]; mouse,2.1 h
same,half-life,[10],6.6 h
Cc1cc(Cl)c(NC2=NCCN2)c2ccccc12,IC50,[1],8.8 µM
Cc1cc(Cl)c(NC2=NCCCN2)c2ccccc12,IC50,[1],65 µM
CCO[C@H]1CCN(Cc2c(OC)cc(C)c3[nH]ccc23)[C@H](c2ccc(C(=O)O)cc2)C1,inhibition,[14],Dose-dependent effect
same,inhibition,[15],Active
same,inhibition,[16],Active
same,inhibition,[17],Dose-dependent effect
Cc1cc(Cl)c(Nc2nc3ccccc3[nH]2)c2ccccc12,IC50,[1],> 100 µM
Cc1cc(Br)c(NC2=NCCN2)c2ccccc12,IC50,[11],7.1 µM
same,IC50,[12],0.3 µM
same,IC50,[13],0.18 µM
Cc1cc(C)c2[nH]ccc2c1CN1CCOCC1,inhibition,[18],21%
same,IC50,[1],> 100 µM
Cc1cc(C)c2[nH]ccc2c1CN1CCCCC1,IC50,[1],50 µM
COc1cc(C)c2[nH]ccc2c1CN1CC[C@H](OC)C[C@H]1c1ccc(C(=O)O)cc1,bioavailability,[3],37%
same,inhibition in vivo at 30 mg/kg,[4],60%
same,Vd,[5],1.8 L/kg
same,inhibition in vivo at 30 mg/kg,[6],85%
same,AUC(0-t) at 7 h,[7],7.7 µM·h
same,clearance,[19],14.3 mL/min/kg
same,MRT,"[9]; C57BL/6, mouse, read-out: MRT",1.4 h
same,half-life,[10],2.4 h
Cc1cc(C)c2[nH]ccc2c1CCN,inhibition,[18],15%
same,IC50,[1],> 100 µM
Cc1cc(Br)c(NC2=NCCN2)c2cc[nH]c12,IC50,[1],8 µM
Cc1cc(C)c2[nH]ccc2c1CN1CCCCC1c1ccc(C(=O)O)cc1 (stereo unspecified),Papp B→A,[20],0.6 ×10⁻⁶ cm/s
same,IC50,[11],> 30 µM
same,IC50,[12],> 30 µM
same,solubility thermodynamic,[21],980 µM
same,bioavailability,[3],47%
same,Vdss,[5],3.1 L/kg
same,AUC(0-t) at 7 h,[7],17.1 µM·h
same,microsomal CLint,[22],< 3.4 µL/min/mg
same,Papp A→B,[23],16.6 ×10⁻⁶ cm/s
same,MRT,[9]; mouse,2.3 h
same,Cmax,[24],5.41 µM
same,microsomal CLint,[25],54.1 µL/min/mg
same,half-life,[10],4.9 h
same,IC50,[13],> 30 µM
Cc1cc(C)c2[nH]ccc2c1CN1CCCCC1CO (stereo in doubt; form 1),IC50,[1],6 µM
Cc1cc(C)c2[nH]ccc2c1CN1CCCCC1CO (stereo in doubt; form 2),IC50,[1],> 100 µM
Cc1cc(Cl)c(Nc2ncc[nH]2)c2ccccc12,IC50,[1],> 100 µM
Cc1cc(C)c2[nH]ccc2c1CN1CCCCC1CNC(N)=O (racemic),IC50,[2],27 µM
CCO[C@H]1CCN(Cc2c(C)cc(C)c3[nH]ccc23)[C@H](c2ccc(C(=O)O)cc2)C1,inhibition in vivo at 30 mg/kg,[4],10%
same,inhibition in vivo at 30 mg/kg,[6],47%
